SMILES strings stand for the structures. Values joined by “and” are separate entries in the source; they are usually repeats but may differ in a detail not shown here. Equal values may be shown once.

This is an account of results in publication PMC7434893 (British Journal of Cancer, 2020).

The series in a line: Food-effect pharmacokinetics, expansion cohort. Type of series: in vivo, human. The note with it: for Cmax / AUC(0-24h) / AUC(0-inf) / AUC(0-t) / Rac / t1/2 / tmax: 600 mg; for Cmax / AUC(0-24h) / AUC(0-inf) / AUC(0-t) / Rac / t1/2: mean (SD); for tmax: median (min, max). The method, then:
Fed patients were administered E7449 immediately after consuming a meal. Patients were then crossed over to the alternate food regimen on day 15.

Consider `O=c1[nH]nc2c3c(cccc13)N=C(CN1Cc3ccccc3C1)N2` [E7449], for which the Cmax (fasted (n=10)) is reported as 1470 (697) ng/mL. Where the note is “fasted”, the “AUC(0-24h)” value is on record as 5510 (1730) (n=9) ng·h/mL, the “AUC(0-inf)” value is recorded as 4480 (1850) (n=2) ng·h/mL, the “AUC(0-t)” value is 5310 (1780) (n=10) ng·h/mL and the Rac was 1.07 (0.03) (n=2). Where the note is “fasted”, the t1/2 is 6.11 (0.74) (n=2) h and the tmax is on record as 2.01 (0.97, 3.00) h. Besides, the Cmax (fed (n=11)) is 863 (563) ng/mL. Moreover, where the note is “fed”, the “AUC(0-24h)” value is listed as 6150 (3280) ng·h/mL, the “AUC(0-inf)” value is given as 6600 (1430) (n=5) ng·h/mL, the “AUC(0-t)” value was 6150 (3270) ng·h/mL and the Rac is 1.08 (0.12) (n=5). For the setting “fed”, the t1/2 was 5.64 (3.17) (n=5) h and the tmax is on record as 4.05 (1.07, 8.18) h. Moreover, under “600-mg dose”, the “Increase in AUC (0–24 h or 0-t) with a high-fat meal” value was ~ 10% and 10%; the “Reduction in Cmax with a high-fat meal” value was found to be 60%.
